Laboratory results published in ChEMBL document CHEMBL1208707, “T-type calcium channel blockers: spiro-piperidine azetidines and azetidinones-optimization, design and synthesis” (Bioorg Med Chem Lett, 2010).
pIC50: −log10 of the molar value. Values belong to the compound of their own block, whether it stands above or below them. Active and inactive are the calls of the source. The rule behind the calls is not given here.

Experiments:
[1] = biological target: T1, Voltage-dependent T-type calcium channel subunit alpha-1H (Homo sapiens, UniProt O95180); test: Inhibition of human CaV3.2 expressed in HEK293 cells at -100 mV membrane potential by whole cell path clamp method; type: cell-based
[2] = Permeability across human Caco-2 cells; type: ADME, cell-based; details: read-out: permeability
Cytochrome P450 2C9 [3] = biological target: T2, Cytochrome P450 2C9 (Homo sapiens, UniProt P11712); test: Inhibition of CYP2C9 preincubated with compound; type: ADME; details: read-out: INH
Cytochrome P450 3A4 = Cytochrome P450 3A4 (Homo sapiens, UniProt P08684); test: Inhibition of CYP3A4 coincubated with compound; type: ADME; details: read-out: INH
Cytochrome P450 2D6 [4] = biological target: T3, Cytochrome P450 2D6 (Homo sapiens, UniProt P10635); test: Inhibition of CYP2D6 coincubated with compound; type: ADME
Cytochrome P450 2C9 [5] = biological target: T2, Cytochrome P450 2C9; test: Inhibition of CYP2C9 coincubated with compound; type: ADME; details: read-out: INH
[6] = biological target: T1, Voltage-dependent T-type calcium channel subunit alpha-1H; test: Inhibition of human CaV3.2 expressed in HEK293 cells at -100 mV membrane potential by Ionworks HT assay; type: cell-based
[7] = biological target: Transient receptor potential cation channel subfamily V member 1 (Homo sapiens) (UniProt Q8NER1); test: Inhibition of TRPV1 expressed in HEK293 assessed as capsaicin activation cells at 3.3 ug/mL by FLIPR assay; type: cell-based
Cytochrome P450 2D6 [8] = biological target: T3, Cytochrome P450 2D6; test: Inhibition of CYP2D6 preincubated with compound; type: ADME
[9] = AUC in po dosed rat; type: ADME, organism-based; details: plasma
Plasma = test: (§1) Protein binding in rat plasma; type: ADME, cell-free
[10] = as §1; type: ADME, cell-free; details: read-out: PPB (converted)
Homo sapiens = species: Homo sapiens; test: Protein binding in human plasma; details: read-out: PPB (converted)
Rattus norvegicus [11] = test: Plasma concentration in SNL rat at 100 mg/kg, po; type: ADME, organism-based; parameters: dose 100 mg/kg, route oral; details: in vivo
Rattus norvegicus [12] = test: In vivo inhibition of TRPV1 activation in SNL rat at 100 mg/kg, po; type: functional, organism-based; parameters: dose 100 mg/kg
Rattus norvegicus [13] = test: In vivo inhibition of TRPV1 activation in SNL rat at 50 mg/kg, po; type: functional, organism-based; parameters: dose 50 mg/kg
Rattus norvegicus [14] = test: In vivo inhibition of TRPV1 activation in SNL rat at 10 mg/kg, po; type: functional, organism-based; parameters: dose 10 mg/kg
Rattus norvegicus [15] = test: In vivo inhibition of TRPV1 activation in SNL rat at 30 mg/kg, po; type: functional, organism-based; parameters: dose 30 mg/kg
Rattus norvegicus [16] = test: In vivo inhibition of TRPV1 activation in SNL rat at 30 and 60 mg/kg, po; type: functional, organism-based; parameters: dose 60 mg/kg
Rattus norvegicus [17] = test: Plasma concentration in SNL rat at 10 mg/kg, po; type: ADME, organism-based; parameters: dose 10 mg/kg, route oral; details: in vivo

T3 sequence (P10635 whole entry): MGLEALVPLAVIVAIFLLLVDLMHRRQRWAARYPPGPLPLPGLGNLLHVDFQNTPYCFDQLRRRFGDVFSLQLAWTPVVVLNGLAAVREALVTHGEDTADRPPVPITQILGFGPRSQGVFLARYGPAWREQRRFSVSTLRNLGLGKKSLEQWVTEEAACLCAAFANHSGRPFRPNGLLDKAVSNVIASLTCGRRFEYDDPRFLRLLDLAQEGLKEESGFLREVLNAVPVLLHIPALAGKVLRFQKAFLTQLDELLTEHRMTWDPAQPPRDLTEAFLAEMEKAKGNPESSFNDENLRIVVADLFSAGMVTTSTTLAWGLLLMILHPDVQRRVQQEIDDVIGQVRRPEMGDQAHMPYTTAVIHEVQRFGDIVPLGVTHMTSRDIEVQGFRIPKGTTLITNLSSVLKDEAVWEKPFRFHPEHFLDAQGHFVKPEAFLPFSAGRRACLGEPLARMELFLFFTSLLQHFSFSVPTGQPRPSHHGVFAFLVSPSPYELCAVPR
T2 sequence (P11712 whole entry): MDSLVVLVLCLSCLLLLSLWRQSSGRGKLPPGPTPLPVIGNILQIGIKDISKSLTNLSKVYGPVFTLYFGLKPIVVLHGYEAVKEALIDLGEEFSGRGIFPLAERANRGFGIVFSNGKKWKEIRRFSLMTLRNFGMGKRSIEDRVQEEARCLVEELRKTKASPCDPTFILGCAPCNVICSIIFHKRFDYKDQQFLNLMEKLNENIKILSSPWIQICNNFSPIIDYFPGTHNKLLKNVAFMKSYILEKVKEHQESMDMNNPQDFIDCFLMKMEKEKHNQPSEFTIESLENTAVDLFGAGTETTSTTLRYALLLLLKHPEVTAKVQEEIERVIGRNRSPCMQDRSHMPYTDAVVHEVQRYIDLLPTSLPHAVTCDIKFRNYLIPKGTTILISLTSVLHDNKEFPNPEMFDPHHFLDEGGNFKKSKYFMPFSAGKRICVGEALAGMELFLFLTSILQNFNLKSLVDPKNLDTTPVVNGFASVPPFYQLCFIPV
Cytochrome P450 3A4, sequence (P08684 whole entry): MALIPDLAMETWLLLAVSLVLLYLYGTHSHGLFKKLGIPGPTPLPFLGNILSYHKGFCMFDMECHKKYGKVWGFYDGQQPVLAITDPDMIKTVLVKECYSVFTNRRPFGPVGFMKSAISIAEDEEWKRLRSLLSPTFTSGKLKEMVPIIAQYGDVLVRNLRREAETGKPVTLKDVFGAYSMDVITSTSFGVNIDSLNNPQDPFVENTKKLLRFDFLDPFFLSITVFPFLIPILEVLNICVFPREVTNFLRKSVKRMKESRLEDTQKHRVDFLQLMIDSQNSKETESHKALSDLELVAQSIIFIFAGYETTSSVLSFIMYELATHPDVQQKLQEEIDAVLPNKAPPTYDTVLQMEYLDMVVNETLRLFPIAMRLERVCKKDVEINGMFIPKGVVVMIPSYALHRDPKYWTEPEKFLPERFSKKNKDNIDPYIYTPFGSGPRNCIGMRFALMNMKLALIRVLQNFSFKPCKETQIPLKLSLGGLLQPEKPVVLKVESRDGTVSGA
Transient receptor potential cation channel subfamily V member 1 (Homo sapiens), sequence (Q8NER1 whole entry): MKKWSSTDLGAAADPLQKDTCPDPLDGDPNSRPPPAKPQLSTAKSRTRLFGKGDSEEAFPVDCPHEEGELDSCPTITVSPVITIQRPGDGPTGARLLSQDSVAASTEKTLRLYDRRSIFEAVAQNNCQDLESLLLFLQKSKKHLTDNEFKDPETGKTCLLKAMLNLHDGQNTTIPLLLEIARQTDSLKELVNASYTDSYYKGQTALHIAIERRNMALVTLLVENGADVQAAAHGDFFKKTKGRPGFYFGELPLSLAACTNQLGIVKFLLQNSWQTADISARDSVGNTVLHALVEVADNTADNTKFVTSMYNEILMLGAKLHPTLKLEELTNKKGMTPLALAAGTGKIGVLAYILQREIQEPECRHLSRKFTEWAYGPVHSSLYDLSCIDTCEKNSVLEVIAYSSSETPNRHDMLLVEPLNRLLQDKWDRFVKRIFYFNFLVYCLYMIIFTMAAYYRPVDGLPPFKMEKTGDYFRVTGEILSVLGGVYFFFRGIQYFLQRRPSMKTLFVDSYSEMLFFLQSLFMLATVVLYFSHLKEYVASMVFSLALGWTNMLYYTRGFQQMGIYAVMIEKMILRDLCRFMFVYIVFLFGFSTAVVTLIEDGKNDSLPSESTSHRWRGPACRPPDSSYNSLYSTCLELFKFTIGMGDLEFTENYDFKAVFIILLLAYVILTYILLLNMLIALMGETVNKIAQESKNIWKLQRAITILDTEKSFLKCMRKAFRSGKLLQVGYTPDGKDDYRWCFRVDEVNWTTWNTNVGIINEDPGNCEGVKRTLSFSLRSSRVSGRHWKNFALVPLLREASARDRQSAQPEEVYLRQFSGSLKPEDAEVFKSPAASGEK
T1 sequence (O95180 whole entry): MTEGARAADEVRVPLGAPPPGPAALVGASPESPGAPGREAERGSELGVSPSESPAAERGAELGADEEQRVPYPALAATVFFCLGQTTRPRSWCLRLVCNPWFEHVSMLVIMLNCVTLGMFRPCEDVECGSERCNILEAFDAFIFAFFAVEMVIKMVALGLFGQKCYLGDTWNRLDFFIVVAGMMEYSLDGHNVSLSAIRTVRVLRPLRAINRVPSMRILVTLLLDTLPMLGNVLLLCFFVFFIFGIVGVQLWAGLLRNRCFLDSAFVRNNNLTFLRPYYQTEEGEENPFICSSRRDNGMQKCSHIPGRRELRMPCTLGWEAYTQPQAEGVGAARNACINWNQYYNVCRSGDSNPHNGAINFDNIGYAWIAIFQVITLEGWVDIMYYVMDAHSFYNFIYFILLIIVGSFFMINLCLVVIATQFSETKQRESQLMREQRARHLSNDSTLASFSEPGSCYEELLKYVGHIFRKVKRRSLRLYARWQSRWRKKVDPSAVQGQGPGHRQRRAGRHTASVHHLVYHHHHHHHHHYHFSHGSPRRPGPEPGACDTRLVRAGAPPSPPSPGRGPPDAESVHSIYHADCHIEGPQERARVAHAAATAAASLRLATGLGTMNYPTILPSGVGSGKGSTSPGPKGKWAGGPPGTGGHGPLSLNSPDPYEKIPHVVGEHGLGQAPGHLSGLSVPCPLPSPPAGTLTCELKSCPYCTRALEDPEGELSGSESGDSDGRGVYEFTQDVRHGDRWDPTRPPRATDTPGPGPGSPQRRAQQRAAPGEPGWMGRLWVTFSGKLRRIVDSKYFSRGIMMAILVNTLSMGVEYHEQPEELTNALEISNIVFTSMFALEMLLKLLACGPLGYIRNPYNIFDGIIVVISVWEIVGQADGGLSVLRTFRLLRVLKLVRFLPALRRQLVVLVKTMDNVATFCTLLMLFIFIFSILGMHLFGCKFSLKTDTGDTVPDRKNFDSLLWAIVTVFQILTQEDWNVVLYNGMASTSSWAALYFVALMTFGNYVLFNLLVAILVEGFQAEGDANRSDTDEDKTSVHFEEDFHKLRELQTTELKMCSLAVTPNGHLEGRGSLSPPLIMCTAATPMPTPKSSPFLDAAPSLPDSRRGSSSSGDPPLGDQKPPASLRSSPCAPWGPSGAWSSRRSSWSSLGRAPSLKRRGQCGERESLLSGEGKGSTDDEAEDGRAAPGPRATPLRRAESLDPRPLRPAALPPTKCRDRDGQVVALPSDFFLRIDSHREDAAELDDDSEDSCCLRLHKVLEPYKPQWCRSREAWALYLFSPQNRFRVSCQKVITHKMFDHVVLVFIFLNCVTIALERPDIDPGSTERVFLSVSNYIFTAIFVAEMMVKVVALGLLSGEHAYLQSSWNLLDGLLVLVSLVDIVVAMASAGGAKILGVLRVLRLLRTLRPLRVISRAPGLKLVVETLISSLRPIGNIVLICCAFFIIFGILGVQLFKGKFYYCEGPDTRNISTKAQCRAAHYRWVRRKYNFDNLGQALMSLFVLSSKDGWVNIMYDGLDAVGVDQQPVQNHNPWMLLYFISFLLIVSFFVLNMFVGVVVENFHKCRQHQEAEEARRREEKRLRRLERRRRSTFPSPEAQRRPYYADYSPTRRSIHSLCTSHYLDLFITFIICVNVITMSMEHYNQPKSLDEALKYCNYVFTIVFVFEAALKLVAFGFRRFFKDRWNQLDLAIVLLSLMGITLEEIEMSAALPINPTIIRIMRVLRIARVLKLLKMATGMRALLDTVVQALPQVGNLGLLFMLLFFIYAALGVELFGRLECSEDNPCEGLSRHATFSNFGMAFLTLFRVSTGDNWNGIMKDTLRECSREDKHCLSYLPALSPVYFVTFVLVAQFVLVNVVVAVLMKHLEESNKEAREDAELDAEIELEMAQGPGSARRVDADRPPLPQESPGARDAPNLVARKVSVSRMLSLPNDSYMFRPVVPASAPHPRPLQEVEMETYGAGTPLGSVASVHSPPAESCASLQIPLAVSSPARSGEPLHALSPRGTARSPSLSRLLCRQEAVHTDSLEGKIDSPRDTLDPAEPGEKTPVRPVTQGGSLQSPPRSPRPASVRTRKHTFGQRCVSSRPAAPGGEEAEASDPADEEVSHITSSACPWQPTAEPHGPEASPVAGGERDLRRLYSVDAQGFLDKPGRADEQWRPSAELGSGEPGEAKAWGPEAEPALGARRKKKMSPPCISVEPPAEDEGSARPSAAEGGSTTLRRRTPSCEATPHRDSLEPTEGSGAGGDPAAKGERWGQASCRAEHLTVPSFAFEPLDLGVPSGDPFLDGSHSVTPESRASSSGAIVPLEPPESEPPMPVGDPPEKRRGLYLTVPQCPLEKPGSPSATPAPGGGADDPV

SMILES: CC(C)N1CC2(CCN(C(=O)Nc3ccc(F)c(F)c3)CC2)C1c1ccc(Cl)cc1 (centres undefined)
pIC50 [1]: 6.47
Papp [2]: 187 nm/s
pIC50 (Cytochrome P450 2C9 [3]): < 4.52
pIC50 (Cytochrome P450 3A4): < 4.52
INH (Cytochrome P450 2D6 [4]): 0.9 µM
pIC50 (Cytochrome P450 2C9 [5]): < 4.52
pIC50 [6]: 6.76
inhibition [7]: 64%
INH (Cytochrome P450 2D6 [8]): 8.1 µM

SMILES: CC(C)N1CC2(CCN(C(=O)Nc3cc(F)cc(F)c3)CC2)C1c1ccc(Cl)cc1 (centres undefined)
pIC50 [1]: 6.48
Papp [2]: > 73.4 nm/s
pIC50 (Cytochrome P450 2C9 [3]): < 4.52
pIC50 (Cytochrome P450 3A4): < 4.52
INH (Cytochrome P450 2D6 [4]): 0.9 µM
pIC50 (Cytochrome P450 2C9 [5]): < 4.52
pIC50 [6]: 6.86
inhibition [7]: 19.1%
INH (Cytochrome P450 2D6 [8]): 3.6 µM

SMILES: O=C1N(c2ccc(F)c(Cl)c2)C(c2ccccn2)C12CCN(c1nc3ccc(Cl)cc3[nH]1)CC2 (centres undefined)
pIC50 [1]: 7.15
AUC [9]: 41.2 µM·h
pIC50 [6]: 7.11
inhibition [7]: 86.2%

SMILES: CC[C@H](C)[C@H](NC(=O)N1CCC2(CC1)CN(C(C)C)C2c1ccc(Cl)cc1)C(=O)OC (stereo in doubt; 2)
pIC50 [1]: 6.91
Papp [2]: 134 nm/s
pIC50 (Cytochrome P450 2C9 [3]): < 4.52
pIC50 (Cytochrome P450 3A4): < 4.52
INH (Cytochrome P450 2D6 [4]): 0.9 µM
pIC50 (Cytochrome P450 2C9 [5]): < 4.52
pIC50 [6]: 6.98
INH (Cytochrome P450 2D6 [8]): 8.1 µM

SMILES: O=C(Nc1cc(F)cc(F)c1)N1CCC2(CC1)CN(c1ccc(F)c(Cl)c1)C2c1ccccn1 (stereo in doubt; 38a)
pIC50 [1]: 7.39
PPB (Plasma): 99.9%
pIC50 [6]: 7.22

SMILES: O=C(Nc1cc(F)cc(F)c1)N1CCC2(CC1)C(=O)N(c1ccc(F)c(Cl)c1)C2c1ccccn1 (stereo in doubt; 39a) [listing 2 of 2 here]
inhibition (Rattus norvegicus [12]): inactive

SMILES: O=C(Nc1cc(F)cc(F)c1)N1CCC2(CC1)C(=O)N(c1ccc(F)c(Cl)c1)C2c1ccccn1 (stereo in doubt; 39b)
inhibition (Rattus norvegicus [13]): inactive
inhibition (Rattus norvegicus [14]): inactive

SMILES: O=C(Nc1cccc(C(F)(F)F)c1)N1CCC2(CC1)C(=O)N(c1ccc(F)c(F)c1)C2c1ccccn1 (stereo in doubt; 41a)
inhibition (Rattus norvegicus [15]): inactive

SMILES: O=C1N(c2ccc(F)c(Cl)c2)C(c2ccccn2)C12CCN(c1nc3cc(F)c(C(F)(F)F)cc3[nH]1)CC2 (stereo in doubt; 52a) [listing 1 of 2 here]
AUC [9]: 0.814 µM·h
concentration (Rattus norvegicus [11]): 3.4 µM
pIC50 [6]: 7.54

SMILES: O=C1N(c2ccc(F)c(Cl)c2)C(c2ccccn2)C12CCN(c1nc3cc(F)c(C(F)(F)F)cc3[nH]1)CC2 (stereo in doubt; 52a) [listing 2 of 2 here]
inhibition [7]: 92%
inhibition (Rattus norvegicus [14]): inactive

Now from value to compound, other results behind:

pIC50 [1]: 7.38
fraction unbound [10]: 0.004
fraction unbound (Homo sapiens): 0.001
concentration (Rattus norvegicus [11]): 3.4 µM
pIC50 [6]: 8.40
SMILES: O=C(Nc1cc(F)cc(F)c1)N1CCC2(CC1)C(=O)N(c1ccc(F)c(Cl)c1)C2c1ccccn1 (stereo in doubt; 39a) [listing 1 of 2 here]

PPB (Plasma): 98.8%
fraction unbound (Homo sapiens): 0.001
SMILES: O=C(Nc1ccc(F)c(F)c1)N1CCC2(CC1)C(=O)N(c1cccc(Cl)c1)C2c1ccccn1 (stereo in doubt; 42a) [listing 1 of 2 here]

inhibition [7]: 82.7%
SMILES: O=C(Nc1ccc(F)c(F)c1)N1CCC2(CC1)C(=O)N(c1cccc(Cl)c1)C2c1ccccn1 (stereo in doubt; 42a) [listing 2 of 2 here]
inhibition (Rattus norvegicus [15]): inactive

PPB (Plasma): 99.2%
fraction unbound (Homo sapiens): 0.013
pIC50 [6]: 7.24
SMILES: N#Cc1cccc(NC(=O)N2CCC3(CC2)C(=O)N(c2cccc(Cl)c2)C3c2ccccn2)c1 (stereo in doubt; 43a)

inhibition [7]: 25%
SMILES: N#Cc1cccc(NC(=O)N2CCC3(CC2)C(=O)N(c2cccc(Cl)c2)C3c2ccccn2)c1 (stereo in doubt; 43b)
inhibition (Rattus norvegicus [15]): inactive

pIC50 [1]: 5.46
PPB (Plasma): 98.9%
fraction unbound (Homo sapiens): 0.003
pIC50 [6]: 7.74
SMILES: O=C(Nc1cc(F)cc(F)c1)N1CCC2(CC1)C(=O)N(c1cccc(Cl)c1)C2c1ccccn1 (stereo in doubt; 44a)

inhibition [7]: 36%
SMILES: O=C(Nc1cc(F)cc(F)c1)N1CCC2(CC1)C(=O)N(c1cccc(Cl)c1)C2c1ccccn1 (stereo in doubt; 44b)
inhibition (Rattus norvegicus [15]): inactive
inhibition (Rattus norvegicus [16]): inactive

inhibition [7]: 59.8%
SMILES: O=C1N(c2ccc(F)c(Cl)c2)C(c2ccccn2)C12CCN(c1nc3cc(F)c(C(F)(F)F)cc3[nH]1)CC2 (stereo in doubt; 52b)
inhibition (Rattus norvegicus [14]): inactive

pIC50 [1]: 6.55
concentration (Rattus norvegicus [17]): 2.1 µM
fraction unbound [10]: 0.005
pIC50 [6]: 6.75
SMILES: O=C(Nc1cccc(C(F)(F)F)c1)N1CCC2(CC1)C(=O)N(c1ccc(F)c(F)c1)C2c1ccccn1 (stereo in doubt; 411b)
